In PubChem BioAssay AID248 (DTP/NCI, 2004):
Values joined by “and” are separate entries in the source; they are usually repeats but may differ in a detail not shown here. Identical values can stand only once. Inconclusive results and toxic doses are left out. Cut-off read from the data, not from the text of the source: active = T/C of 150% or more; inactive = T/C below 125%.

System: L1210 leukemia ip in BDF1 mice, survival T/C
Assay: NCI In Vivo Anticancer Drug Screen. Data for tumor model L1210 Leukemia (intraperitoneal) in B6D2F1 (BDF1) mice
Details: endpoint: mean survival time, higher = longer survival
Summary of the method: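 Tumor cells were implanted, animals were treated, and survival was followed. The result divides the treated measurement by the vehicle-control measurement.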

[1] = dose: 100.0 mg/kg/injection, schedule: Q01DX001 (ip), vehicle: carboxymethylcellulose (CMC)
[2] = dose: 200.0 mg/kg/injection, schedule: Q01DX001 (ip), vehicle: carboxymethylcellulose (CMC)
[3] = dose: 400.0 mg/kg/injection, schedule: Q01DX001 (ip), vehicle: carboxymethylcellulose (CMC)
[4] = dose: 100.0 mg/kg/injection, schedule: Q01DX009 (ip), vehicle: saline
[5] = dose: 100.0 mg/kg/injection, schedule: Q01DX001 (ip), vehicle: saline
[6] = dose: 200.0 mg/kg/injection, schedule: Q01DX001 (ip), vehicle: saline
[7] = dose: 400.0 mg/kg/injection, schedule: Q01DX001 (ip), vehicle: saline
[8] = dose: 100.0 mg/kg/injection, schedule: Q04DX003 (ip), vehicle: saline
[9] = dose: 200.0 mg/kg/injection, schedule: Q04DX003 (ip), vehicle: saline
[10] = dose: 400.0 mg/kg/injection, schedule: Q04DX003 (ip), vehicle: saline
[11] = dose: 100.0 mg/kg/injection, schedule: Q01DX009 (ip), vehicle: Klucel (hydroxypropylcellulose) (HPC)
[12] = dose: 100.0 mg/kg/injection, schedule: Q01DX009 (ip), vehicle: saline with Tween-80
[13] = dose: 200.0 mg/kg/injection, schedule: Q01DX009 (ip), vehicle: saline with Tween-80
[14] = dose: 200.0 mg/kg/injection, schedule: Q01DX009 (ip), vehicle: Klucel (hydroxypropylcellulose) (HPC)
[15] = dose: 400.0 mg/kg/injection, schedule: Q01DX009 (ip), vehicle: Klucel (hydroxypropylcellulose) (HPC)
[16] = dose: 100.0 mg/kg/injection, schedule: Q04DX003 (ip), vehicle: Klucel (hydroxypropylcellulose) (HPC)
[17] = dose: 200.0 mg/kg/injection, schedule: Q04DX003 (ip), vehicle: Klucel (hydroxypropylcellulose) (HPC)
[18] = dose: 400.0 mg/kg/injection, schedule: Q04DX003 (ip), vehicle: Klucel (hydroxypropylcellulose) (HPC)

Measured: T/C

O=C1c2cc(Br)cc(Br)c2NCCC1(Br)Br
inactive: [1] 91 % of control | [2] 91 % of control | [3] 94 % of control

CC1(C)N=C(N)N=C(N)N1c1ccc(C(=O)Nc2ccc(S(=O)(=O)F)cc2)cc1
inactive: dose: 0.8 mg/kg/injection, schedule: Q01DX009 (ip), vehicle: saline 101 % of control | dose: 4.0 mg/kg/injection, schedule: Q01DX009 (ip), vehicle: saline 100 % of control | dose: 20.0 mg/kg/injection, schedule: Q01DX009 (ip), vehicle: saline 95 % of control | [4] 97 % of control | dose: 500.0 mg/kg/injection, schedule: Q01DX009 (ip), vehicle: saline 101 % of control

NC(=O)c1c(/N=C/c2ccccc2Cl)sc2c1CCCC2
inactive: dose: 100.0 mg/kg/injection, schedule: Q04DX002 (ip), vehicle: saline with Tween-80 91 % of control | dose: 200.0 mg/kg/injection, schedule: Q04DX002 (ip), vehicle: saline with Tween-80 87 % of control | dose: 400.0 mg/kg/injection, schedule: Q04DX002 (ip), vehicle: saline with Tween-80 91 % of control

CC(C)C1CCC(C)C(NC(N)=O)C1 (stereo unspecified)
inactive: [5] 95 % of control | [6] 97 % of control | [7] 106 % of control

c1ccc(ON=C2c3ccccc3-c3ccccc32)cc1
inactive: [8] 102 % of control | [9] 96 % of control | [10] 89 % of control

COc1ccccc1CN1CCCN(Cc2ccccc2OC)C1c1cc(Br)ccc1O
inactive: dose: 50.0 mg/kg/injection, schedule: Q01DX001 (ip), vehicle: saline 95 % of control | [5] 103 % of control | [6] 103 % of control | [7] 103 % of control

CN(C)/C(=C/c1ccccc1)CS(=O)(=O)N(C)C
inactive: dose: 75.0 mg/kg/injection, schedule: Q01DX001 (ip), vehicle: carboxymethylcellulose (CMC) 106 % of control | dose: 150.0 mg/kg/injection, schedule: Q01DX001 (ip), vehicle: carboxymethylcellulose (CMC) 97 % of control | dose: 300.0 mg/kg/injection, schedule: Q01DX001 (ip), vehicle: carboxymethylcellulose (CMC) 89 % of control

COc1cc(/C=C/[N+](=O)[O-])ccc1O
inactive: dose: 25.0 mg/kg/injection, schedule: Q01DX009 (ip), vehicle: Klucel (hydroxypropylcellulose) (HPC) 98 % of control | dose: 50.0 mg/kg/injection, schedule: Q01DX009 (ip), vehicle: Klucel (hydroxypropylcellulose) (HPC) 98 % of control | [11] 102 % of control and 103 % of control

CCOC(=O)CCc1c(C(=O)OCC)[nH]c(C)c1C(=O)OC(C)(C)C
inactive: dose: 100.0 mg/kg/injection, schedule: Q01DX001 (ip), vehicle: Klucel (hydroxypropylcellulose) (HPC) 105 % of control | dose: 200.0 mg/kg/injection, schedule: Q01DX001 (ip), vehicle: Klucel (hydroxypropylcellulose) (HPC) 124 % of control | dose: 400.0 mg/kg/injection, schedule: Q01DX001 (ip), vehicle: Klucel (hydroxypropylcellulose) (HPC) 95 % of control

O=C1NC(=S)S/C1=C\c1ccc(Cl)c(Cl)c1
inactive: [12] 97 % of control | [13] 95 % of control

CCC(=O)OC1CCC2C3CCC4=CC(=O)CCC4(C)C3CCC12C (stereo unspecified)
inactive: [1] 107 % of control | [2] 96 % of control | [3] 96 % of control

COc1ccc(NC(=O)Nc2cc([N+](=O)[O-])ccc2C)cc1[N+](=O)[O-]
inactive: [11] 98 % of control | [14] 96 % of control | [15] 104 % of control

COC(=O)C1=NN(c2ccccc2)CC1
inactive: [5] 98 % of control | dose: 100.0 mg/kg/injection, schedule: Q04DX003 (ip), vehicle: other 88 % of control | [6] 106 % of control | dose: 200.0 mg/kg/injection, schedule: Q04DX003 (ip), vehicle: other 94 % of control | [7] 90 % of control | dose: 400.0 mg/kg/injection, schedule: Q04DX003 (ip), vehicle: other 94 % of control

CCCCC(=O)NC(O)C(Cl)(Cl)C(C)Cl (stereo unspecified)
inactive: dose: 50.0 mg/kg/injection, schedule: Q01DX001 (ip), vehicle: other 112 % of control | dose: 100.0 mg/kg/injection, schedule: Q01DX001 (ip), vehicle: other 91 % of control | dose: 200.0 mg/kg/injection, schedule: Q01DX001 (ip), vehicle: other 101 % of control | dose: 400.0 mg/kg/injection, schedule: Q01DX001 (ip), vehicle: other 101 % of control

O=[N+]([O-])c1ccc(NC(=S)Nc2cccc(C(F)(F)F)c2)cc1
inactive: [11] 90 % of control | [14] 91 % of control | [15] 100 % of control

C=C1C(=O)CCC1C(=O)O (stereo unspecified)
inactive: [4] 101 % of control | dose: 200.0 mg/kg/injection, schedule: Q01DX009 (ip), vehicle: saline 110 % of control | dose: 400.0 mg/kg/injection, schedule: Q01DX009 (ip), vehicle: saline 112 % of control

COc1cc(C=O)ccc1OC(=O)Nc1cccc(Cl)c1C
inactive: [11] 97 % of control | [14] 97 % of control | [15] 103 % of control

N#CCc1ccc(Cl)c(Cl)c1
inactive: dose: 5.0 mg/kg/injection, schedule: Q01DX001 (ip), vehicle: saline 100 % of control | dose: 10.0 mg/kg/injection, schedule: Q01DX001 (ip), vehicle: saline 105 % of control | dose: 20.0 mg/kg/injection, schedule: Q01DX001 (ip), vehicle: saline 95 % of control | dose: 40.0 mg/kg/injection, schedule: Q01DX001 (ip), vehicle: saline 95 % of control | dose: 80.0 mg/kg/injection, schedule: Q01DX001 (ip), vehicle: saline 98 % of control

COc1cc(OC)c(NC(=O)NCCCl)cc1Cl
inactive: [16] 104 % of control | [17] 106 % of control | [18] 97 % of control

COCC(C)C=O (stereo unspecified)
inactive: dose: 50.0 mg/kg/injection, schedule: Q01DX009 (ip), vehicle: saline with Tween-80 91 % of control | [12] 91 % of control | [13] 94 % of control

CC(=Nc1ccccc1)NO
inactive: dose: 50.0 mg/kg/injection, schedule: Q01DX009 (ip), vehicle: acetone 94 % of control | dose: 100.0 mg/kg/injection, schedule: Q01DX009 (ip), vehicle: acetone 97 % of control | [8] 96 % of control | dose: 200.0 mg/kg/injection, schedule: Q01DX009 (ip), vehicle: acetone 100 % of control | [9] 108 % of control | [10] 96 % of control

N#CCCCN1C(=O)c2ccccc2S1(=O)=O
inactive: dose: 44.0 mg/kg/injection, schedule: Q01DX Z (ip), vehicle: methylcellulose (MC) 98 % of control | dose: 66.0 mg/kg/injection, schedule: Q01DX Z (ip), vehicle: methylcellulose (MC) 120 % of control | dose: 100.0 mg/kg/injection, schedule: Q01DX Z (ip), vehicle: methylcellulose (MC) 98 % of control

Cc1cccc(N2CCC3(CC2)C(=O)NC(=O)NC3=O)c1
inactive: [5] 94 % of control | [6] 97 % of control | [7] 100 % of control

CC(C)=CCC/C(C)=C/COC(=O)C(CC=C(C)C)CCN1CCN(C)CC1 (stereo unspecified)
inactive: [16] 104 % of control | [17] 93 % of control | [18] 104 % of control

COc1ccc(OC)c(NC(=O)Nc2ccc(N(C)C(C)=O)cc2)c1
inactive: [16] 90 % of control | [17] 87 % of control | [18] 88 % of control
